# Experimental data published in patent publication US12577232B2, “N-heterocycle substituted tryptamine derivatives and methods of using” (ENVERIC B[…] INC., priority 2024, dated 2026).
# What was measured:
# [1] = tested on: human model (NT2) neurons; test: Neuroplastogenicity (neurite outgrowth) assay in NT2 neurons; assay type: cell-based; parameters: key: a positive (+) designation indicating strong evidence of enhanced neurite outgrowth in drug-treated NT2 cells compared to vehicle-treated cells; a negative (−) designation indicating weak or no evidence of enhanced neurite outgrowth in drug-treated NT2 cells compared to vehicle-treated cells; conditions: 1 or 10 μM, 48 h, visual inspection vs vehicle (0.1% DMSO)
# Text: Classic psychedelics such as psilocybin and DMT show potential to treat anxiety and depression, and it has been theorized that such long-term improvements arise because these drugs rapidly and lastingly stimulate neuroplasticity (Calder and Hasler, 2023, Neuropsychopharmacol. 48:104-112). Thus, it was of interest to determine the potential of new compounds as neuroplastogens. Herein, we assess the capacity of various compounds to enhance neurite outgrowth in human model (NT2) neurons.
# Human NT2/D1 precursor cells were purchased from the American Type Culture Collection (ATCC, Manassas, VA, USA). Neuronal differentiation was carried out as previously described (Roloff et al., 2015, PloS ONE 10:e0118536) with minor modifications. Firstly, NT2/D1 cells were seeded in T-25 suspension culture flasks (REF #690190, Greiner bio-one, Germany). Each flask contains a minimum of 5×10^6 cells in 10 ml of DMEM/F12 supplemented with 10% fetal bovine serum (FBS), 1% penicillin and streptomycin and 10 μM retinoic acid (RA) medium to start neuronal differentiation. The cells were cultured for 3 days in free floating medium. At the end of the incubation cells were trypsinized and collected by centrifugation, mechanically dispersed, and counted. Counted cells were seeded along Poly D-Lysine (PDL) coated cover slips (12 mm; diameter round, Fisher Scientific; GG-12-PDL) containing a minimum of 0.1×10^5 cells in culture medium without RA. The next day culture medium was replaced with RA medium containing 2% of FBS. These cells cultured for 5 days and two days later, RA medium was changed.
# After cells had successfully attached and established along coverslips, the RA medium was replaced with new medium containing 2% FBS and one of the following: (1) test compound (1 or 10 μM), (2) RhoK (ROCK) inhibitor Y-27632 (1 μM) as a positive control (Dihydrochloride; Sigma-Aldrich) (Roloff et al., 2015, PloS ONE 10:e0118536); (3) DMT (1 or 10 μM) as a positive control (Calder and Hasler, 2023, Neuropsychopharmacol. 48:104-112), or (4) vehicle (0.1% DMSO) as a negative control. These cells were incubated for 48 hours under standard conditions (370C, 5% CO2). The cells cultured along coverslips were collected after 48 hours of treatment. The coverslips washed with calcium chloride and magnesium chloride-free phosphate buffered saline (PBS) pH 7.4 (Gibco, #70011-044) and fixed in paraformaldehyde (PFA) 4% in PBS (#J61899, thermoscientific) for 15 min at room temperature (RT) and washed three times with 0.01% of Triton-X100 in PBS (PBST) to remove remaining PFA and to permeabilize the cells. Non-specific binding sites were blocked with 5% of Bovine Serum Albumin (BSA) solution (#9048-46-8, Millipore) in PBST for 60 minutes at RT. Rabbit monoclonal antibody β-III-tubulin (1:5,000, ab52623, Abcam) was applied overnight (O/N) at 4° C. Next day cells are washed three times in PBST, neurons were incubated with secondary antibody Donkey anti-rabbit IgG(H+L) Alexa Fluor™ Plus488 (1:5000 #A32790, Invitrogen) for 1 hour at RT. These coverslips were mounted on Gluoromount-G™, with 4′6-diamidino-2′henylindoldihydrochloride (DAPI) (#E141818, Invitrogen). The immunofluorescence images were analyzed using an Olympus VS110 slide scanner microscope.
# B-III-Tubulin immunofluorescence was quantified using ImageJ. Briefly, Corrected Total Cell Fluorescence (CTCF) was acquired for at least ˜8-10 representative cells, where CTCF=Integrated Density−[Area of selected cell*Mean Fluorescence of background]. The CTCF values, referred to herein as ‘signal intensities’, were used to calculate overall means±SD for each treatment. One-Way ANOVA was used to compare treatments. Further, the mean of each treatment was compared with the mean of the control treatment (RA-differentiated cells treated with vehicle, 0.1% DMSO) using Dunnett's multiple comparison procedure. […]
# [2] = target: T1, human serotonin transporter (SERT) (Homo sapiens, UniProt P31645); test: biochemical; assay type: binding; conditions: 1 nM imipramine; membranes containing human SERT; read-out: SERT, Ki
# T1 construct: purchased PerkinElmer RBHSTM400UA
# Experimental: A commonly applied SERT binding assay involves competition binding assays employing radiolabelled ligands. […] Radioactive binding assays were carried out using the Scintillation Proximity Assay (SPA). For saturation binding assay, mixtures of 9 μg of membrane containing human SERT was pre-coupled to 1 mg of SPA beads at room temperature in a tube rotator for 1 hour in binding buffer (50 mM Tris-HCl pH7.4, 120 mM NaCl, 5 mM KCl, 1 mM ascorbic acid, 10 μM pargyline HCl). […] After incubation, the samples are read on a MicroBeta 2 Microplate Counter. Non-specific binding was carried out in the presence of 200 μM of clomipramine hydrochloride (C7291-1G, Sigma). Equilibrium binding constant for imipramine (KD) was determined from saturation binding curve using one-site saturation binding analysis from GraphPad PRISM software (Version 9.2.0). All test compounds were dissolved to 100 mM in DMSO and dilutions were carried out in assay buffer. […] Ki values were calculated from the competition displacement data using the competitive binding analysis from GraphPad PRISM software. […] Vehicle (DMSO) without drug was used as a negative control.
# T1 sequence (P31645 whole entry): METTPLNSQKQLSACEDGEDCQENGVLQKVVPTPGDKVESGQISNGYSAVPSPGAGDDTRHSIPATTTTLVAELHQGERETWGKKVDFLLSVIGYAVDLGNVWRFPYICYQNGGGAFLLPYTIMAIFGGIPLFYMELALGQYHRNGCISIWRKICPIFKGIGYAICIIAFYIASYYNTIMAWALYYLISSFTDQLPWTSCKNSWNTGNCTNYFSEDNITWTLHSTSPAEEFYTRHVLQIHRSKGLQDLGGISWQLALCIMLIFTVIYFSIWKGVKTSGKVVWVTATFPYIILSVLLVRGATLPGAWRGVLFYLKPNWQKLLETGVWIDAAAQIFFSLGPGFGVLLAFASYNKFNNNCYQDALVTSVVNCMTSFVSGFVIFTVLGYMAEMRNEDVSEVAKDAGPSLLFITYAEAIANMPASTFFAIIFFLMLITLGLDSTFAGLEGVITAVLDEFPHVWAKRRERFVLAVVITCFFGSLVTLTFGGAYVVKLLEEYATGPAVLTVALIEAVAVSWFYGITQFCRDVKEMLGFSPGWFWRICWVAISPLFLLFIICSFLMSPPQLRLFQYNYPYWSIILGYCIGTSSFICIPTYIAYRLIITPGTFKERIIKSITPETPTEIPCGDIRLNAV
SMILES,Evidence of neurite outgrowth: Yes (+) or No (−) [1],Ki [2] [µM]
CN(C)CCc1c[nH]c2cc(N3CCC3)ccc12 [Compound (XII)],+,1.68
CN(C)CCc1c[nH]c2cc(F)cc(N3CCOCC3)c12 [Compound (XV)],+,9.13
CC(C)N(C)CCc1c[nH]c2cc(N3CCOCC3)c(F)cc12 [Compound (XVII)],+,–
CN(C)CCc1c[nH]c2cc(N3CCCC3)cc(F)c12 [Compound (XVIII)],+,39.2
